The values below come from patent US20120041068A1, “Extended Release Pharmaceutical Preparations for Active Pharmaceutical Ingredients with pH Dependent Solubility” (Aptapharma, Inc., priority 2010, published 2012).

This series can be described thus: Effect of crystallization inhibitor on guanfacine HCl solubility (clear vs precipitate on storage). The format is physicochemical. As to conditions: in the presence of polyvinyl pyrrolidone vs comparison formulation without polyvinyl pyrrolidone. The text has this:
As crystallization inhibitors, highly dispersed silicon dioxide or macromolecular substances are suitable.

Where a name gives a salt, the structure may show the parent alone.

As to `N=C(N)NC(=O)Cc1c(Cl)cccc1Cl` [guanfacine, guanfacine hydrochloride], the “tendency toward crystal formation” value was “less tendency toward crystal formation”.
